Measurements from patent US5843889A, “Glycopeptide antibiotic derivatives” (Eli Lilly and Company, priority 1997, dated 1998).
In brackets after ≈: the same amount, converted by molar mass.

Columns and labels:
[1] = test system: Entercoccus gallinarum 245; test: MIC, standard broth micro-dilution assay; assay type: cell-based
Procedure: (§1) The formula I compounds have in vitro and in vivo activity against Gram-positive pathogenic bacteria. The MIC's were determined using a standard broth micro-dilution assay.

[2] = test system: Entercoccus faecalis 2041; test: MIC, standard broth micro-dilution assay; assay type: cell-based
Procedure: as §1

| Compound | MIC [1] | MIC [2] |
| --- | --- | --- |
| CNC(CC(C)C)C(=O)NC1C(=O)NC(CC(N)=O)C(=O)NC2C(=O)NC3C(=O)NC(C(=O)NC(C(=O)O)c4cc(O)cc(O)c4-c4cc3ccc4O)C(OC3CC(C)(N)C(O)C(C)O3)c3ccc(c(Cl)c3)Oc3cc2cc(c3OC2OC(CO)C(O)C(O)C2OC2CC(C)(NCC3CCC(COCc4ccccc4)CC3)C(O)C(C)O2)Oc2ccc(cc2Cl)C1O (stereo not drawn) [Compound 239] | 1 µg/mL (≈ 0.553 µM) | ≤ 0.06 µg/mL |
| CNC(CC(C)C)C(=O)NC1C(=O)NC(CC(N)=O)C(=O)NC2C(=O)NC3C(=O)NC(C(=O)NC(C(=O)O)c4cc(O)cc(O)c4-c4cc3ccc4O)C(OC3CC(C)(N)C(O)C(C)O3)c3ccc(cc3)Oc3cc2cc(c3OC2OC(CO)C(O)C(O)C2OC2CC(C)(NCc3ccc(-c4ccccc4)cc3)C(O)C(C)O2)Oc2ccc(cc2)C1O (stereo not drawn) [Compound 183, 4-phenylbenzyl] | 0.5 µg/mL (≈ 0.296 µM) | ≤ 0.06 µg/mL |
| CNC(CC(C)C)C(=O)NC1C(=O)NC(CC(N)=O)C(=O)NC2C(=O)NC3C(=O)NC(C(=O)NC(C(=O)O)c4cc(O)cc(O)c4-c4cc3ccc4O)C(OC3CC(C)(N)C(O)C(C)O3)c3ccc(c(Cl)c3)Oc3cc2cc(c3OC2OC(CO)C(O)C(O)C2OC2CC(C)(NCc3ccc4c(c3)CCCC4)C(O)C(C)O2)Oc2ccc(cc2Cl)C1O (stereo not drawn) [Compound 168] | 2 µg/mL (≈ 1.15 µM) | ≤ 0.06 µg/mL |
| CNC(CC(C)C)C(=O)NC1C(=O)NC(CC(N)=O)C(=O)NC2C(=O)NC3C(=O)NC(C(=O)NC(C(=O)O)c4cc(O)cc(O)c4-c4cc3ccc4O)C(OC3CC(C)(N)C(O)C(C)O3)c3ccc(c(Cl)c3)Oc3cc2cc(c3OC2OC(CO)C(O)C(O)C2OC2CC(C)(NCc3ccc(I)s3)C(O)C(C)O2)Oc2ccc(cc2Cl)C1O (stereo not drawn) [Compound 74, 5-iodo-2-thienylmethyl] | ≤ 0.06 µg/mL | ≤ 0.06 µg/mL |
| CNC(CC(C)C)C(=O)NC1C(=O)NC(CC(N)=O)C(=O)NC2C(=O)NC3C(=O)NC(C(=O)NC(C(=O)O)c4cc(O)cc(O)c4-c4cc3ccc4O)C(OC3CC(C)(N)C(O)C(C)O3)c3ccc(c(Cl)c3)Oc3cc2cc(c3OC2OC(CO)C(O)C(O)C2OC2CC(C)(NCc3ccc(OCCCc4ccccc4)cc3)C(O)C(C)O2)Oc2ccc(cc2Cl)C1O (stereo not drawn) [Compound 223, 4-[3-phenylpropyloxy]benzyl] | 1 µg/mL (≈ 0.55 µM) | ≤ 0.06 µg/mL |
| CNC(CC(C)C)C(=O)NC1C(=O)NC(CC(N)=O)C(=O)NC2C(=O)NC3C(=O)NC(C(=O)NC(C(=O)O)c4cc(O)cc(O)c4-c4cc3ccc4O)C(OC3CC(C)(N)C(O)C(C)O3)c3ccc(c(Cl)c3)Oc3cc2cc(c3OC2OC(CO)C(O)C(O)C2OC2CC(C)(NCc3ccc(-c4ccc(C)c(C)c4)cc3)C(O)C(C)O2)Oc2ccc(cc2Cl)C1O (stereo not drawn) [Compound 221, 4-[3,4-dimethylphenyl]benzyl] | 2 µg/mL (≈ 1.12 µM) | ≤ 0.06 µg/mL |
| CNC(CC(C)C)C(=O)NC1C(=O)NC(CC(N)=O)C(=O)NC2C(=O)NC3C(=O)NC(C(=O)NC(C(=O)O)c4cc(O)cc(O)c4-c4cc3ccc4O)C(OC3CC(C)(N)C(O)C(C)O3)c3ccc(c(Cl)c3)Oc3cc2cc(c3OC2OC(CO)C(O)C(O)C2OC2CC(C)(NCc3cc(-c4ccccc4)ccc3O)C(O)C(C)O2)Oc2ccc(cc2Cl)C1O (stereo not drawn) [Compound 85, 2-hydroxy-5-phenylbenzyl] | 2 µg/mL (≈ 1.13 µM) | ≤ 0.06 µg/mL |
| C=CCCCOc1ccc(CNC2(C)CC(OC3C(Oc4c5cc6cc4Oc4ccc(cc4Cl)C(OC4CC(C)(N)C(O)C(C)O4)C4NC(=O)C(NC(=O)C6NC(=O)C(CC(N)=O)NC(=O)C(NC(=O)C(CC(C)C)NC)C(O)c6ccc(c(Cl)c6)O5)c5ccc(O)c(c5)-c5c(O)cc(O)cc5C(C(=O)O)NC4=O)OC(CO)C(O)C3O)OC(C)C2O)cc1 (stereo not drawn) [Compound 226, 4-[4-pentenyloxy]benzyl] | 1 µg/mL (≈ 0.566 µM) | ≤ 0.06 µg/mL |
| CNC(CC(C)C)C(=O)NC1C(=O)NC(CC(N)=O)C(=O)NC2C(=O)NC3C(=O)NC(C(=O)NC(C(=O)O)c4cc(O)cc(O)c4-c4cc3ccc4O)C(OC3CC(C)(N)C(O)C(C)O3)c3ccc(c(Cl)c3)Oc3cc2cc(c3OC2OC(CO)C(O)C(O)C2OC2CC(C)(NCC3=CCC(C(C)C)CC3)C(O)C(C)O2)Oc2ccc(cc2Cl)C1O (stereo not drawn) [Compound 171, 1-cyclohexenyl-4-isopropylmethyl] | 8 µg/mL (≈ 4.63 µM) | ≤ 0.06 µg/mL |
